For test [1], the target named is Tumour suppressor protein p53/Mdm4 (Homo sapiens, UniProt O15151+P04637). The test can be described thus: Inhibition of human DMX-p53 protein-protein interaction […]. The class given is protein assay. Background: Isothermal titration calorimetry measures the heat released or taken up as one component is titrated into another.
Test [2] has as its target Adenomatous polyposis coli protein (Homo sapiens, UniProt P25054). Kind of test: Binding affinity to APC (unknown origin) assessed as inhibition constant by ITC analysis.
Test [3] deals with Heat shock protein HSP90 (Homo sapiens, UniProt P07900+P08238). Kind of test: Binding affinity to HSP90 (unknown origin) assessed as dissociation constant. The test is classed as protein assay.
A short description of test [4]: Binding affinity to APC/ASEF (unknown origin) protein protein interaction assessed as dissociation constant by ITC analysis. More on the design: species or system Homo sapiens.
In test [5] the target is Catenin beta-1/Transcription factor 7 (Homo sapiens) (UniProt P36402+P35222). The test can be described thus: Binding affinity to beta-catenin/Tcf (unknown origin) assessed as gibbs free energy change. The class given is protein assay.
Test [6] has as its target Histone-lysine N-methyltransferase 2A (Homo sapiens, UniProt Q03164). The test can be described thus: Competitive binding affinity to full length wild type MLL (unknown origin).
Test [7] concerns the target Catenin beta-1/Transcription factor 7 (Homo sapiens, UniProt P35222+P36402). The test can be described thus: Inhibition of N-terminal beta-catenin/full length myc-tagged TCF (unknown origin) trasfected in HEK293 cells measured for 48 hrs by. The class given is cell-based.
Test [8] can be described thus: Inhibition of full length GST-tagged Wnt (unknown origin) by luciferase assay. Also on record: species or system Homo sapiens.

Molecules are shown by their SMILES. Numbered stars: 1 amine (or outer) side, 2 acyl side, 3 side chain; on linkers, the order of the positions; unused ones are H or OH. Square brackets hold non-standard residues; d marks the D form. Peptide text beside a SMILES is read from it. * marks the point of attachment. ξ: configuration not given here. X1 = O=C(O)c1cc(NC(=S)*)ccc1-c1c2ccc(=O)cc-2oc2cc(O)ccc12; N(2-(2-PhOPh)Et)Gly = O=C(O)CNCCc1ccccc1Oc1ccccc1; Gly(N-3,5-(OMe)2-Ph) = COc1cc(NCC(=O)O)cc(OC)c1; X2 = COc1ccc([C@H](C)N(CC(=O)[*:2])[*:1])cc1; Ala(cPent) = N[C@@H](CC1CCCC1)C(=O)O; N((CH2)3OiPr)Gly = CC(C)OCCCNCC(=O)O; Cbz = O=C(OCc1ccccc1)*; ξI = CCC(C)C(N)C(=O)O; βAla = NCCC(=O)O; ξA = CC(N)C(=O)O Some results are limits rather than exact numbers.

Tumour suppressor protein p53/Mdm4, sequence (P04637 whole entry): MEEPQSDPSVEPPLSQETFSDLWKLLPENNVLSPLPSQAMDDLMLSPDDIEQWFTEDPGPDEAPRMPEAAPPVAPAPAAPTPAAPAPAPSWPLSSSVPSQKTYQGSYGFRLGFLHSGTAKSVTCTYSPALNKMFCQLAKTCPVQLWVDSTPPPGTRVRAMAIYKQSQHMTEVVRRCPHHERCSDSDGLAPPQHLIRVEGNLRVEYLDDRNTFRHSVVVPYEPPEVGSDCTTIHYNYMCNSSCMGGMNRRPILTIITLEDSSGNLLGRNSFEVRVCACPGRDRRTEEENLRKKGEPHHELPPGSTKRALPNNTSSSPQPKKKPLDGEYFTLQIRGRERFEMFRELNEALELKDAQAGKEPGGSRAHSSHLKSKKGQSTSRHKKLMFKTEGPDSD
Tumour suppressor protein p53/Mdm4, sequence (O15151 whole entry): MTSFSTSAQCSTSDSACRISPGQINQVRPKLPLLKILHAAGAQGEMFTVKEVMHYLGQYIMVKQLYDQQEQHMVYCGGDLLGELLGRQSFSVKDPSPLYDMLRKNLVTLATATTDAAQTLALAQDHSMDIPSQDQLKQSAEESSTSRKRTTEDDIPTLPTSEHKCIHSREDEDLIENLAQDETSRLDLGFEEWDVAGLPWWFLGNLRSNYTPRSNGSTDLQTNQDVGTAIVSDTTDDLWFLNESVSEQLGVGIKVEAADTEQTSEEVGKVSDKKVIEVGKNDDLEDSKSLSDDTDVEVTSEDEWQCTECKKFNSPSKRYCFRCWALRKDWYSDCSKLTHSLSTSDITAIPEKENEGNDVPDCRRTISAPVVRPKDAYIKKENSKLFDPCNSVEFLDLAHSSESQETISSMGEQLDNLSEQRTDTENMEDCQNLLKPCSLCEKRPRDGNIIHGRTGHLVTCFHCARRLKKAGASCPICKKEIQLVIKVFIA
Histone-lysine N-methyltransferase 2A, sequence (Q03164 1-2718 limits assumed): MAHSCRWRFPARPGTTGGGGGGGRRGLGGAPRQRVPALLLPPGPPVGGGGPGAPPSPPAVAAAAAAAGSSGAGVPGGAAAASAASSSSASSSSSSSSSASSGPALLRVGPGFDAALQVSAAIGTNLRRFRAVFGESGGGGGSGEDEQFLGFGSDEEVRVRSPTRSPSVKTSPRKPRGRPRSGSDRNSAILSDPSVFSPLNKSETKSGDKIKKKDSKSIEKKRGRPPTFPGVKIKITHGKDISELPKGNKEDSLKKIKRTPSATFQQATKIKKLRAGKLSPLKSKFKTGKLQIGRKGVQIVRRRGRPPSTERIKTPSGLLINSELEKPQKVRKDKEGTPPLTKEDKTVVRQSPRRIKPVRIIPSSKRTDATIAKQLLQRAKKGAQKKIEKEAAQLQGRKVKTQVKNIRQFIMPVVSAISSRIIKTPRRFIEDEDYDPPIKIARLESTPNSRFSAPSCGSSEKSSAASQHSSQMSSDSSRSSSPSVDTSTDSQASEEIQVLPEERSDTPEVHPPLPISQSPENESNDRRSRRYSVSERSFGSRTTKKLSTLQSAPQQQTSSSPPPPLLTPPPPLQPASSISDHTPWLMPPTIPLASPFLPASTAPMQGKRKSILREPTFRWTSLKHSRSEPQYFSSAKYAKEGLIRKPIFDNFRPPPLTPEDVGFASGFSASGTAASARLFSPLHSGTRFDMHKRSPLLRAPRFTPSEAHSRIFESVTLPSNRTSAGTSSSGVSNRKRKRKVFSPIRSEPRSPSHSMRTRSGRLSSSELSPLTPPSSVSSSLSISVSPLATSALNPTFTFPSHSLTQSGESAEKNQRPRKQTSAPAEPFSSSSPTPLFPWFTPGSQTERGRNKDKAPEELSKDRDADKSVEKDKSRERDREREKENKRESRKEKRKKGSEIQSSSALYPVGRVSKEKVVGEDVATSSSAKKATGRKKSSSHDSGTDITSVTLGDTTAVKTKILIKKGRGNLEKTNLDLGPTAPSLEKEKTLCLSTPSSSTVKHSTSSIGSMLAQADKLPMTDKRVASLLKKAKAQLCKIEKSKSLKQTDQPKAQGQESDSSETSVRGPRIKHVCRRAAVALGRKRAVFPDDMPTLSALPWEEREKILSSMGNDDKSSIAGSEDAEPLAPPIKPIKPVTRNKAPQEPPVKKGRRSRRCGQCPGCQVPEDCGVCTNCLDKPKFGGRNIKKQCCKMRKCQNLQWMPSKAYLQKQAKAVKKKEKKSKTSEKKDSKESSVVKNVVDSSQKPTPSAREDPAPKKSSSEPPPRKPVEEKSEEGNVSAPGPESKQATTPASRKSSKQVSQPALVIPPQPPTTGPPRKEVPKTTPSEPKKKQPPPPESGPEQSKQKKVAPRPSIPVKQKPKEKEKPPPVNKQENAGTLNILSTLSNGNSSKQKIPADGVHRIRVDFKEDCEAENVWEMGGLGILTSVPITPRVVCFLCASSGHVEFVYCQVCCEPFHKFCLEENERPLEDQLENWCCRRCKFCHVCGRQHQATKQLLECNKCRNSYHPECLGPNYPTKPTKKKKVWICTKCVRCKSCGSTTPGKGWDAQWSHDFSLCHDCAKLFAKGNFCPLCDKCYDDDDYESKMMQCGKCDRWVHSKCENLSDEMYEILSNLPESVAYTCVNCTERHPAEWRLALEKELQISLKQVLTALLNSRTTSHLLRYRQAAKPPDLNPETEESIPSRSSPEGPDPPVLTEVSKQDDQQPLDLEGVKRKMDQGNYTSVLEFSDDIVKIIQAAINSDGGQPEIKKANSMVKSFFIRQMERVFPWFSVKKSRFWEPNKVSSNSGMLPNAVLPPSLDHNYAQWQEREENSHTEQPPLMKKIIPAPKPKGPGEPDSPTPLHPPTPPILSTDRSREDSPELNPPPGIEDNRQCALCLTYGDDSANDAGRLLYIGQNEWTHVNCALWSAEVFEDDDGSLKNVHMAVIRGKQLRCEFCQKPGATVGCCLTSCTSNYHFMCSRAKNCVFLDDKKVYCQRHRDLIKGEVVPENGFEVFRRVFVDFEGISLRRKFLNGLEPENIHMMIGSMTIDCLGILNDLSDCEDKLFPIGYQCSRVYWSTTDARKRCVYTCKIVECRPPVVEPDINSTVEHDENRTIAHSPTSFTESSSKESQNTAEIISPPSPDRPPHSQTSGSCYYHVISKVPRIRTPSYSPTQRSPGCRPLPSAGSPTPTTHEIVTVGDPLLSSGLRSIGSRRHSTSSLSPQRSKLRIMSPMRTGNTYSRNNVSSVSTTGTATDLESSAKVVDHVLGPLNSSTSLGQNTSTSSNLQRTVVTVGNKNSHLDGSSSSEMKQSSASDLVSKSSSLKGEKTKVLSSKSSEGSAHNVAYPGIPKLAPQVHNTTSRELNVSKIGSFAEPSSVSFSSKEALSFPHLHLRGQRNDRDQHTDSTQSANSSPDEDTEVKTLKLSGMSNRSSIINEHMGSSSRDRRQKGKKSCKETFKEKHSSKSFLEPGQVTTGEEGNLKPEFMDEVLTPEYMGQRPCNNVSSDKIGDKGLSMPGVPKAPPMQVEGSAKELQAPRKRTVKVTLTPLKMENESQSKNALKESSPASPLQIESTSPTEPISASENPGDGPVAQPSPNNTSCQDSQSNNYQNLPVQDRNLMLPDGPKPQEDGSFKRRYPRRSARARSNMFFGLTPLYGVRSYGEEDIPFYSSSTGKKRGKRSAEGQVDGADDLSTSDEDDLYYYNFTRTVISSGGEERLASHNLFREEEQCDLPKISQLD
Histone-lysine N-methyltransferase 2A, sequence (Q03164 2719-3969 limits assumed): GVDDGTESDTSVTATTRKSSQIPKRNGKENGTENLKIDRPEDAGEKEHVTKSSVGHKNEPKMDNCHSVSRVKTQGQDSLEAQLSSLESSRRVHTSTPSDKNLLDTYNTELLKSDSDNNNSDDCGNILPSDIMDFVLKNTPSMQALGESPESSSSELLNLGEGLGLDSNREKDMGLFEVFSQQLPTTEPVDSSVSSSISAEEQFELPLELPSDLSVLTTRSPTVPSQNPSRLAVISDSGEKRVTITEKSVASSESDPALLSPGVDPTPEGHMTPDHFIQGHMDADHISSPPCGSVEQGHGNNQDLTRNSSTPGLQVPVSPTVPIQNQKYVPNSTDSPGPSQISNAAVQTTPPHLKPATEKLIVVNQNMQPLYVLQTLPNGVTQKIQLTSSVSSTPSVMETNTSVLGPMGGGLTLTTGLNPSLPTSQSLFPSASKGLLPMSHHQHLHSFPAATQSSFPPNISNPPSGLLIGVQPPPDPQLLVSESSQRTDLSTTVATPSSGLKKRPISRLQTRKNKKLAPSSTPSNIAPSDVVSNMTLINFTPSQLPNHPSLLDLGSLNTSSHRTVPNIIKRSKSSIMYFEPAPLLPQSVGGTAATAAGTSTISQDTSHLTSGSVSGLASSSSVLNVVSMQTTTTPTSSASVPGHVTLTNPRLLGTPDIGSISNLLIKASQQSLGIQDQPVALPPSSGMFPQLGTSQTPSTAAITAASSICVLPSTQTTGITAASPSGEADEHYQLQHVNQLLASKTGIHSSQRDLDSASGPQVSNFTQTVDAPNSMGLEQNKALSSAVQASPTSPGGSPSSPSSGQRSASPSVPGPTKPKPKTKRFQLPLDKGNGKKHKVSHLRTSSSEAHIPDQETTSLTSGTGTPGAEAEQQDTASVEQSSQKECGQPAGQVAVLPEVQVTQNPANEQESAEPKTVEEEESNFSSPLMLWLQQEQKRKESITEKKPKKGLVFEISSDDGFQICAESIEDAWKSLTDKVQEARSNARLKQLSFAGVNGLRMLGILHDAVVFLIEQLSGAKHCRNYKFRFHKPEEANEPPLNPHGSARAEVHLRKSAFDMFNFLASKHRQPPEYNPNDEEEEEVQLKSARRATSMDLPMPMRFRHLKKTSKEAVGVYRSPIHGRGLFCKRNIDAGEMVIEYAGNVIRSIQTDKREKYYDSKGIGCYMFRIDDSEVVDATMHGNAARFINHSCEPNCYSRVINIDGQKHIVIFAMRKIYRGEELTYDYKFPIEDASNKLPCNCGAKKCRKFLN

In test [1], `Fc1ccc(-c2cn(CSc3ccccc3)nn2)c(F)c1` gave an IC50 of more than 0.1 µM.
`C[C@H](NC(=O)OCc1ccccc1)C(=O)NCC(=O)N[C@@H](CCC(=O)O)C(=O)N[C@@H](C)C(=O)N[C@@H](CC1CCCC1)C(=O)N[C@@H](Cc1ccc(O)cc1)C(=O)N[C@@H](CCC(=O)O)C(N)=O` (Cbz-AGEA[Ala(cPent)]YE-NH2): the Ki in test [2] stood at 0.015 µM.
In test [1], `O=C(N[C@@H](Cn1cc(-c2ccccc2)nn1)C(=O)O)OCC1c2ccccc2-c2ccccc21` had an IC50 of 0.00246 µM.
For the compound `CC(=O)N[C@@H]1C(n2cc([C@@](C)(O)c3cccc(F)c3)nn2)O[C@H](COCc2ccccc2)[C@H](OCc2ccccc2)[C@@H]1OCc1ccccc1` (stereo partly drawn), in test [1], inhibition was half-maximal at 0.0224 µM (IC50). Further, in test [3], the Kd was 21.1 µM.
`CC(=O)N[C@@H]1C(n2cc(-c3ccc(F)cc3F)nn2)O[C@H](COCc2ccccc2)[C@H](OCc2ccccc2)[C@@H]1OCc1ccccc1` (stereo partly drawn) registered an IC50 in test [1] of more than 0.1 µM.
On the same count and under the same terms, to `C[C@](O)(c1ccccc1)c1cn(C[C@H](NC(=O)OCC2c3ccccc3-c3ccccc32)C(=O)O)nn1` belongs 0.00577 µM.
As to `CCC(C)C(NC(=O)C(C)NC(=O)[C@H](CC(C)C)NC(=O)[C@H](CCC(N)=O)NC(=O)[C@H](CCC(=O)O)NC(=O)CNC(=O)CNC(C)=O)C(N)=O` (stereo partly drawn) (Ac-GGEQL[ξA][ξI]-NH2), the Kd in test [4] was 0.018 µM.
In turn, `Cc1cn([C@H]2C[C@H](n3cc([C@]4(O)CC[C@H]5[C@@H]6CCc7cc(O)ccc7[C@H]6CC[C@@]54C)nn3)[C@@H](CO)O2)c(=O)[nH]c1=O` returned an IC50 in test [1] of 0.0124 µM.
On to `OC[C@H]1OC(n2cc(-c3ccc(F)cc3F)nn2)[C@H](O)[C@@H](O)[C@@H]1O` (stereo partly drawn), for which the IC50 in test [1] came out at 0.0001 µM.
As to `COCCN1CC(=O)N(CCc2ccc(OC)cc2)CC(=O)N(c2cc(OC)cc(OC)c2)CC(=O)N(C(C)c2ccc(OC)cc2)CC(=O)N(C(C)c2ccc(OC)cc2)CC(=O)N[C@H](C)C1=O` (stereo partly drawn), the deltaG in test [5] is -15.9 kcal/mol.
Compound `C[C@](O)(c1cccc(F)c1)c1cn(C2O[C@H](CO)[C@@H](O)[C@H](O)[C@H]2O)nn1` (stereo partly drawn) displayed a half-maximal inhibitory concentration (IC50) in test [1] of 0.00024 µM.
In the case of `O=C(N[C@@H](Cn1cc(-c2ccc(F)cc2F)nn1)C(=O)O)OCC1c2ccccc2-c2ccccc21`, in test [1], it took 0.00174 µM to reach half-maximal inhibition (IC50).
In test [6], `CC[C@H](C)[C@H](NC(=O)[C@H](CC(=O)O)NC(=O)[C@H](CO)NC(=O)CCNC(=S)Nc1ccc(-c2c3ccc(=O)cc-3oc3cc(O)ccc23)c(C(=O)O)c1)C(=O)N[C@@H](CCSC)C(=O)N[C@@H](CC(=O)O)C(=O)N[C@@H](Cc1ccccc1)C(=O)N[C@H](C(=O)N[C@@H](CC(C)C)C(=O)N[C@@H](CCCCN)C(=O)N[C@@H](CC(N)=O)C(=O)N[C@H](C(=O)N1CCC[C@H]1C(N)=O)[C@@H](C)O)C(C)C` ({X1-βAla}-SDIMDFVLKNTP-NH2) came in with a Kd of more than 100 µM and a Ki of more than 1000 µM.
`C[C@](O)(c1cccc(F)c1)c1cn(CSc2ccccc2)nn1` came in with an IC50 in test [1] of 0.008 µM.
As to `COc1ccc([C@H](C)N2CC(=O)N[C@H](C)C(=O)N(CCc3ccccc3Oc3ccccc3)CC(=O)N(c3cc(OC)cc(OC)c3)CC(=O)N(CCCOC(C)C)CC(=O)N([C@@H](C)c3ccc(OC)cc3)CC2=O)cc1` (cyclo([dA][N(2-(2-PhOPh)Et)Gly][Gly(N-3,5-(OMe)2-Ph)][N((CH2)3OiPr)Gly][X2][X2])), the IC50 is 5.44 µM in test [7] and 0.105 µM in test [8].

One may read the IC50 as the midpoint of a concentration-inhibition curve. A higher IC50 goes with weaker potency. Usually Ki stands for a dissociation constant, usually derived from enzyme kinetics or from competition with a known ligand. In general, Kd refers to a measure of binding affinity in units of concentration.

Values taken from ChEMBL document CHEMBL5230108, “Computational methods-guided design of modulators targeting protein-protein interactions (PPIs)” (Eur J Med Chem, 2020).
